Values quoted from earlier work, collected in patent US20240397917A1, “ANIMAL PRODUCTION METHOD” (DSM IP ASSETS B.V., priority 2021, published 2024).

Assays:
[1] = in vivo
[2] = per 1% increase in plasma levels of 25-OH-D3; average of broiler trials

absorption (at the same level of inclusion in feed): 74.9% | absorption in the intestine in comparison to Vitamin D3 (when fed): more efficient absorption | excretion in comparison to Vitamin D3 (when fed): less excretion | retention in comparison to Vitamin D3 (when fed): greater retention
SMILES: C=C1CC[C@H](O)C/C1=C/C=C1\CCC[C@]2(C)[C@@H]([C@H](C)CCCC(C)(C)O)CC[C@@H]12 [HyD, calcidiol]
dose without toxic effects [1]: up to 10 times its recommended dose | improvement in ADG [2]: 0.029% | improvement in bone strength [2]: 0.173% | improvement in breast meat yield [2]: 0.008% | improvement in gait score [2]: 0.296%
